Measured values reported in ChEMBL document CHEMBL1147448, “New substituted triaza-benzo[cd]azulen-9-ones as promising phosphodiesterase-4 inhibitors” (Bioorg Med Chem Lett, 2004).

How the values were obtained:
[1] = molecular target: Phosphodiesterase 3 (Homo sapiens, UniProt Q14432+Q13370); test: Inhibition of phosphodiesterase 3; assay type: protein assay, Canis lupus familiaris
[2] = molecular target: Phosphodiesterase 1 (Homo sapiens, UniProt P54750+Q01064+Q14123); test: Inhibition of Phosphodiesterase 1; assay type: protein assay, Cavia porcellus
[3] = molecular target: Phosphodiesterase 4 (Homo sapiens, UniProt P27815+Q08499+Q07343+Q08493); test: Inhibition of phosphodiesterase 4; assay type: protein assay

Compound	IC50 [1] [µM]	IC50 [2] [µM]	IC50 [3] [µM]
COc1cc2c3c(c1)C(c1ccccc1)=NCC(=O)N3CC2	77	52	40
Nc1cc2c3c(c1)C(c1ccccc1)=N[C@@H](NC(=O)c1ccncc1)C(=O)N3CC2			0.27
COc1cc2c3c(n1)C(c1ccccc1)=NCC(=O)N3CC2	> 100	> 100	23
COc1cc2c3c(n1)C(c1ccccc1)=N[C@@H](NC(=O)c1cccnc1)C(=O)N3CC2	12	14	6.1
COc1cc2c3c(c1)C(c1ccccc1)=N[C@@H](NC(=O)c1ccncc1)C(=O)N3CC2		16	
COc1cc2c3c(n1)C(c1ccccc1)=NC(NC(=O)c1cccnc1)C(=O)N3CC2 (single isomer, unassigned)	> 100	28	73
COc1cc2c3c(n1)C(c1ccccc1)=NC(NC(=O)c1cccnc1)C(=O)N3CC2 (stereo in doubt)	31	5.8	4.3
